Reference: patent US11820729B2 (Johnson & Johnson Consumer Inc., priority 2014, dated 2023)

Key:
[1] = test system: 16-hour salivary biofilm on pellicle coated hydroxyapatite pegs; assay: Prevention assay: prevention of bacterial attachment to pellicle coated hydroxyapatite pegs, ATP bioluminescence; assay type: cell-based
Experimental: The formulations in Examples 2-4, 6, 8 and 9 were prepared and test for prevention of bacterial attachment using the prevention assay. In this assay hydroxyapatite-coated polystyrene peg plate (96 pegs, N=8 per group) was exposed to saliva for one minute to form a pellicle at a temperature of 35 C. Then, for each formulation, eight pegs (N=8) were pre-treated for ten minutes with the formulation using an orbital shaker set to 500 RPM at room temperature. As a negative control, eight pegs (N=8) were pre-treated for ten minutes with sterile water. Next, a 16-hour salivary biofilm was grown on these polystyrene peg plates at a temperature of 35 C.
After all treatments were complete, the biofilm from each peg was neutralized and rinsed. The biofilm was harvested via sonication using a Q-Sonica Q700 Ultrasonic Liquid Processor with 431MP4-00 microplate horn Damper and 0.5:1 reverse gain booster (Q-Sonica, Newtown, Conn.). Using a Celsis Rapid Detection RapiScreen kit (Celsis International PLC, Chicago, Ill.), the bacteria were lysed with Celsis Luminex and then the adenosine triphosphate (ATP) from the lysed bacteria was measured using the bioluminescence marker Celcis Luminate and a Centro LB 960 Microplate Luminometer supplied by Berthold Technologies (Wildbad, Germany). Data were reported in log RLU (relative light units) where decreasing log RLUs indicated fewer viable bacteria remained on the biofilm substrate. The log RLUs for the prevention assay are shown on Tables 2, 4, 6, 10, 14, and 16.

S. mutans biofilm = assay: S. mutans single species kill assay (in-vitro biofilm model); assay type: cell-based; conditions: simple solution formulas (Table 13), 30 second treatment
Experimental: The formulations listed in Example 7 were prepared and tested using an in-vitro single species S. mutans biofilm model. A 24-hour S. mutans biofilm is grown on a polystyrene peg plate (96 pegs, N=6 per test group). The pegs were subsequently treated for thirty seconds with each of formulations H and I, as well as positive and negative controls. The treatment is applied as a single thirty (30) second treatment. The positive control is a commercially available essential oil mouth rinse. The negative control is sterile water. After treatment the biofilm is neutralized and rinsed. The biofilm is harvested via sonication using a Misonix Ultrasonic Liquid Processor (Farmingdale, N.Y.). Using a Celsis Rapid Detection RapiScreen kit (Celsis International PLC, Chicago), the bacteria are lysed with Celsis Luminex and then the adenosine triphosphate (ATP) from the lysed bacteria is measured using the bioluminescence marker LB960 Microplate Luminometer supplied by Berthold (Wildbad, Germany). Data are reported in log RLU (relative light units) where decreasing log RLUs indicates fewer viable bacteria remaining on the biofilm substrate.

[2] = HPLC quantification of compound remaining after storage at 50° C.; assay type: physicochemical; conditions: HPLC
Experimental: Briefly, formulations containing either LAE or any of the 26 compounds and standards are diluted into a solution of 50% acetonitrile and 50% water. They are evaluated on an Agilent HPLC using a Zorbax ion exchange column. In the method, 10 uL of the sample is withdrawn and ran through the HPLC with a 40% potassium phosphate (molarity at pH 3.0) 60% acetonitrile mobile phase. […] The molecule peak is auto integrated using the Online Agilent HPLC software. Comparisons are made to the standard to identify the % of compound remaining following storage.

[3] = simple solution solvent base formulas (Table 11)

CCCCCCCCCCCC(=O)NC(CCCNC(=N)N)C(=O)NCC (centres unmarked) [Compound 9, [amino({[4-dodecanamido-4-(ethylcarbamoyl)butyl]amino})methylidene]azanium]
effect of presence of essential oils (EOs) on prevention of bacterial attachment ([1]; 0.15 wt % compound 9, Table 6): has no effect
effect of surfactant on prevention of bacterial attachment ([1]; 0.15 wt % compound 9, Table 6): has a major effect
prevention of bacterial attachment in full formula ([1]; 0.15 wt % in alcohol free base, compositions K-R): Prevents Bacterial Attachment in Full Formula
efficacy at preventing bacterial attachment ([1]; 0.15 wt % in water): demonstrated efficacy at preventing bacterial attachment
prevention of bacterial attachment compared with LAE ([1]; 0.15 wt %, 21.6% alcohol and water-based solution): equally as efficacious as LAE
prevention of bacterial attachment in alcohol free full formulations ([1]; Table 15 formulations, water as the only solvent): Prevent Bacterial Attachment
prevention of bacterial attachment in alcohol-free full formulations ([1]; Table 17 formulations, water and propylene glycol as solvents): Prevent Bacterial Attachment
most effective concentration for prevention of bacterial attachment ([1]; compound 9 in simple water solution (Table 1 compositions)): 0.3 wt %
concentration effect on prevention of bacterial attachment ([1]; compound 9 in water, 0.01-0.4 w/w %): dose dependent response
ability to prevent bacterial attachment [1, 3]: have the ability to prevent bacterial attachment
preventing bacterial attachment the best [1, 3]: preventing bacterial attachment the best
log reduction in S. mutans (S. mutans biofilm): do not Result in More than a One Log Reduction in S. mutans
% of molecule maintained out to 8 weeks when stored at 50° C. ([2]; 8 weeks, 50° C., formulations of Table 7): at least 90%
stability in an alcohol-free formulation ([2]; storage at 50° C.): Maintains Stability
